“Also recorded” adds a separate entry of the source.
Tested on: ICU subjects with severe sepsis
Experiment: Response to steroids in ICU severe sepsis subjects by MAP3K14 rs7222094 genotype (28-day survival, days alive and free of organ dysfunction)
Type: in vivo, human
Details: for SURV (28-Day Survival): % (N survived); for Delta SURV (28-Day Survival): treat (steroid-treated) minus cont (steroid untreated controls), difference of % survival; for Delta COAG.DAF (Days alive and free of coagulation dysfunction) / Delta CVS.DAF (Days alive and free of cardiovascular dysfunction) / Delta DA (Days alive) / Delta INR.DAF (Days alive and free of international normalized ratio >1.5) / Delta LIVER.DAF (Days alive and free of any type of hepatic dysfunction) / Delta PRESS.DAF (Days alive and free of any vasopressors) / Delta RENAL.DAF (Days alive and free of any type of renal dysfunction) / Delta RENSUP.DAF (Days alive and free of renal support) / Delta RESP.DAF (Days alive and free of respiratory dysfunction) / Delta VENT.DAF (Days alive and free of mechanical ventilators): treat minus cont (steroid untreated controls), difference of medians
Method: All subjects admitted to the ICU of St. Paul's Hospital (SPH) were screened for study inclusion. SPH ICU is a mixed medical-surgical ICU in a tertiary care, university-affiliated teaching hospital. Subjects were included in the study if they met at least two out of four SIRS criteria: 1) fever (>38° C.) or hypothermia (<36° C.), 2) tachycardia (>90 beats/minute), 3) tachypnea (>20 breaths/minute), PaCO2<32 mm Hg, or need for mechanical ventilation, and 4) leukocytosis (total leukocyte count>12,000 mm^3) or leukopenia (<4,000 mm^3). Subjects were included in the analysis if they met the diagnostic criteria for septic shock (sepsis and cardiovascular dysfunction (as defined by Brussels scoring system) and one other organ dysfunction) on admission to the ICU. Subjects were excluded if blood could not be obtained for genotype analysis. Baseline characteristics (age, gender, admission APACHE II score (KNAUS W A. et al. Crit. Care Med. (1985) 13:818-829), together with medical vs. surgical diagnosis KNAUS W A. et al. Chest (1991) 100:1619-1636) were recorded on admission to the ICU. The full cohort meeting these criteria included 1072 Caucasian subjects and 153 Asian subjects.
The primary outcome variable evaluated in this study was 28-day mortality. Various organ dysfunctions were considered as secondary outcome variables. Baseline demographics recorded were age, gender, admission APACHE II score (KNAUS W A. et al. Crit. Care Med (1985) 13:818-829), and medical or surgical diagnosis on admission to the ICU (based on the APACHE III diagnostic codes) (KNAUS W A. et al. Chest (1991) 100:1619-1636) (TABLE 2B).
After meeting the inclusion criteria, data were recorded for each 24-hour period (8 am to 8 am) for 28-days after ICU admission or until hospital discharge to evaluate organ dysfunction, the intensity of SIRS (Systemic Inflammatory Response Syndrome) and sepsis. Raw clinical and laboratory variables were recorded using the worst or most abnormal variable for each 24-hour period with the exception of Glasgow Coma Score, for which the best possible score for each 24-hour period was recorded. Missing data on the date of admission was assigned a normal value and missing data after day one was substituted by carrying forward the value from the previous day. When data collection for each patient was complete, all patient identifiers were removed from all records and the patient file was assigned a unique random number linked with the blood samples. The completed raw data file was used to calculate descriptive and severity of illness scores using standard definitions as described below.
Organ dysfunction was first evaluated at baseline and then daily using the Brussels score (SIBBALD W J. and VINCENT J L. Chest (1995) 107(2):522-7) (see TABLE 2A in General Methods Section). If the Brussels score was moderate, severe, or extreme dysfunction then organ dysfunction was recorded as present on that day. To correct for deaths during the observation period, we calculated the days alive and free of organ dysfunction (RUSSELL J A. et al. Crit. Care Med (2000) 28(10):3405-11 and BERNARD G R. et al. Chest (1997) 112(1):164-72) (TABLE 2C). For example, the severity of cardiovascular dysfunction was assessed by measuring days alive and free of cardiovascular dysfunction over a 28-day observation period. Days alive and free of cardiovascular dysfunction was calculated as the number of days after inclusion that a patient was alive and free of cardiovascular dysfunction over 28-days. Thus, a lower score for days alive and free of cardiovascular dysfunction indicates more cardiovascular dysfunction. The reason that days alive and free of cardiovascular dysfunction is preferable to simply presence or absence of cardiovascular dysfunction is that severe sepsis has a high acute mortality so that early death (within 28-days) precludes calculation of the presence or absence of cardiovascular dysfunction in dead subjects. […]

[1] = steroid-treated, rs7222094 TT (N = 74), Table 4.3 25th percentile/median/75th percentile, Table 4.5 median

## hydrocortisone [steroids]
rs7222094 CC subjects, p=0.02023, Pearson's Chi-square
  worse survival of steroid-treated than untreated subjects: 15%
steroid-treated subjects with rs7222094 CC
  28-day survival and organ dysfunction compared to controls (in words): lower 28-day survival and more organ dysfunction than controls; also recorded: decreases 28-day survival
steroid-treated subjects with rs7222094 TT
  28-day survival and organ function compared to controls (in words): increased survival and improved organ function; also recorded: improved compared with controls
steroid-treated, genotypes Combined (N = 355)
  SURV (28-Day Survival): 57% (203)
steroid-treated, rs7222094 CC (N = 122)
  SURV (28-Day Survival): 45% (55)
steroid-treated, rs7222094 CC (N = 122), Table 4.3 25th percentile/median/75th percentile, Table 4.5 median
  RENAL.DAF (Days alive and free of any type of renal dysfunction): 0 days
steroid-treated, rs7222094 TC (N = 159)
  SURV (28-Day Survival): 59% (94)
[1]
  DA (Days alive): 28 days
  INR.DAF (Days alive and free of international normalized ratio >1.5): 27 days
  LIVER.DAF (Days alive and free of any type of hepatic dysfunction): 28 days
rs7222094 CC
  Delta SURV (28-Day Survival): −15.0
  Delta COAG.DAF (Days alive and free of coagulation dysfunction): -11.5 days
  Delta CVS.DAF (Days alive and free of cardiovascular dysfunction): -1.0 days
  Delta DA (Days alive): -5.0 days
  Delta INR.DAF (Days alive and free of international normalized ratio >1.5): -6.0 days
  Delta LIVER.DAF (Days alive and free of any type of hepatic dysfunction): -6.5 days
  Delta PRESS.DAF (Days alive and free of any vasopressors): -11.0 days
  Delta RENAL.DAF (Days alive and free of any type of renal dysfunction): -4.0 days
  Delta RENSUP.DAF (Days alive and free of renal support): -9.0 days
  Delta RESP.DAF (Days alive and free of respiratory dysfunction): -12.0 days
  Delta VENT.DAF (Days alive and free of mechanical ventilators): -11.0 days
rs7222094 TC
  Delta SURV (28-Day Survival): −7.0
  Delta COAG.DAF (Days alive and free of coagulation dysfunction): -3.0 days
  Delta CVS.DAF (Days alive and free of cardiovascular dysfunction): -0.5 days
  Delta DA (Days alive): 0.0 days
  Delta INR.DAF (Days alive and free of international normalized ratio >1.5): -1.0 days
  Delta LIVER.DAF (Days alive and free of any type of hepatic dysfunction): 0.0 days
  Delta PRESS.DAF (Days alive and free of any vasopressors): -7.0 days
  Delta RENAL.DAF (Days alive and free of any type of renal dysfunction): -9.5 days
  Delta RENSUP.DAF (Days alive and free of renal support): -9.0 days
  Delta RESP.DAF (Days alive and free of respiratory dysfunction): -7.0 days
  Delta VENT.DAF (Days alive and free of mechanical ventilators): -11.0 days
rs7222094 TT
  Delta SURV (28-Day Survival): 3.0
  Delta COAG.DAF (Days alive and free of coagulation dysfunction): -0.5 days
  Delta CVS.DAF (Days alive and free of cardiovascular dysfunction): 1.0 days
  Delta DA (Days alive): 0.0 days
  Delta INR.DAF (Days alive and free of international normalized ratio >1.5): 0.0 days
  Delta LIVER.DAF (Days alive and free of any type of hepatic dysfunction): 0.0 days
  Delta PRESS.DAF (Days alive and free of any vasopressors): -2.0 days
  Delta RENAL.DAF (Days alive and free of any type of renal dysfunction): -5.5 days
  Delta RENSUP.DAF (Days alive and free of renal support): 0.0 days
  Delta RESP.DAF (Days alive and free of respiratory dysfunction): -2.0 days
  Delta VENT.DAF (Days alive and free of mechanical ventilators): -2.0 days
